Test results published in US20140296190A1, “MARKETING THE USE OF 25-HYDROXYVITAMIN D3 TO ENHANCE COGNITION” (DSM IP ASSETS B.V., priority 2013, published 2014).
Read-outs that look alike come from different tables or passages of the source.

How the values were obtained:
[1] = system: frail elderly with a low Vitamin D status; test: Example 2 placebo-controlled trial: executive function tests in frail elderly; assay type: in vivo, human; settings: 6 months, in comparison to Vitamin D3 and placebo
Source text: The design is a parallel group, randomized, placebo-controlled, double-blind study with three different application groups. Each group has an appropriate number of participants (e.g., 20 participants). Eligibility is defined as being 65 years or older and being frail or pre-frail. Frailty is defined as having unintentional weight loss, weakness, self-reported exhaustion, slow walking speed, and/or low physical activity (see Fried L P, et al. Frailty in older adults: evidence for a phenotype. J Gerontol A Biol Sci Med. Sci. March 2001; 56(3):[…]-156.) A participant is classified as pre-frail when one or two of the aforementioned criteria are met, while frail is classified when three or more criteria are present. […] The duration of supplementation is 6 months (180 days). […] Double-blind randomization is carried out by means of a label code associated with a specific participant ID number, whose meaning is known only to the supplier. Participants are allocated randomly to these numbers. For baseline (Day 0) the following tests are performed: […] […] Executive functioning test batteries include the following standard tests of executive functioning: Trail Making Tests A and B (to determine the ratio of TMT-B/TMT-A), Stroop Colour-Word Test, including determining the Stroop ratio, calculated by Stroop card 3/((Stroop card 1+Stroop card 2)/2) and animal fluency test. […]

[2] = Example 2 placebo-controlled trial: serum/plasma 25-OH D3 level in frail elderly; set-up: species or system human; settings: in vivo
Source text: The design is a parallel group, randomized, placebo-controlled, double-blind study with three different application groups. Each group has an appropriate number of participants (e.g., 20 participants). Eligibility is defined as being 65 years or older and being frail or pre-frail. Frailty is defined as having unintentional weight loss, weakness, self-reported exhaustion, slow walking speed, and/or low physical activity (see Fried L P, et al. Frailty in older adults: evidence for a phenotype. J Gerontol A Biol Sci Med. Sci. […] A participant is classified as pre-frail when one or two of the aforementioned criteria are met, while frail is classified when three or more criteria are present. […] The duration of supplementation is 6 months (180 days). […] Double-blind randomization is carried out by means of a label code associated with a specific participant ID number, whose meaning is known only to the supplier. Participants are allocated randomly to these numbers. For baseline (Day 0) the following tests are performed: […] Baseline evaluation is followed by the randomization of the subjects. From Day 2 on, they start to take the study compounds. […] For the combination administration, the same ranges of both actives are administered. At visits on Day 90 and Day 180 the following tests are performed: […]

healthy adults under 65 = test: Example 3 placebo-controlled trial: executive function tests in the general adult population; assay type: in vivo, human; settings: healthy adults under 65, 6 months
Protocol: The design is a parallel group, randomized, placebo-controlled, double-blind study similar to that of Example 2, above, except that the participants are healthy adults under 65. The duration of supplementation is 6 months (180 days). Group size is chosen so that a statistically significant difference, if present, may be observed between placebo and test groups. […] Double-blind randomization is carried out by means of a label code associated with a specific participant ID number, whose meaning is known only to the supplier. Participants are allocated randomly to these numbers. For baseline (Day 0) the following tests are performed: […] Baseline evaluation is followed by the randomization of the subjects. From Day 2 on, they start to take the study compounds. At visits on Day 90 and Day 180 the following tests are performed: […] Executive functioning test batteries include the following standard tests of executive functioning: Trail Making Tests A and B (to determine the ratio of TMT-B/TMT-A), Stroop Colour-Word Test, including determining the Stroop ratio, calculated by Stroop card 3/((Stroop card 1+Stroop card 2)/2) and animal fluency test. These tests are always performed at the same time of the day.

[3] = set-up: species or system human; settings: in vivo
Source text: The design is a parallel group, randomized, placebo-controlled, double-blind study similar to that of Example 2, above, except that the participants are healthy adults under 65. The duration of supplementation is 6 months (180 days). Group size is chosen so that a statistically significant difference, if present, may be observed between placebo and test groups.
Participants are randomly allocated to either the 25-OH D3 group, Vitamin D3 group, (Vitamin D3+25 OH D3) group or placebo group. Double-blind randomization is carried out by means of a label code associated with a specific participant ID number, whose meaning is known only to the supplier. Participants are allocated randomly to these numbers.
For baseline (Day 0) the following tests are performed: Physical examination, vital signs (blood pressure, heart rate), demographics, clinical laboratory, FFQ, serum: 25-OH D3, 24,25(OH)2D, 1,25(OH)2D3, Vitamin D3, calcium, albumin, creatinine, fasting glucose, PTH; urine: calcium, creatinine; executive function tests (see below). Baseline evaluation is followed by the randomization of the subjects. From Day 2 on, they start to take the study compounds. […]

Structure (SMILES): C=C1CC[C@H](O)C/C1=C/C=C1\CCC[C@]2(C)[C@@H]([C@H](C)CCCC(C)(C)O)CC[C@@H]12 [25(OH)D, 25-hydroxyvitamin D3]
- Improvement of executive functioning [1]: significantly higher effect
- 25-OH D serum level [2]: significantly increases
- Executive function in comparison to placebo (healthy adults under 65): Positive results
- 25-OH D serum level [3]: significantly increases
